{
  "source": "patent US20090143456A1",
  "about": "“Polyamine Analogs as Modulators of Cell Migration and Cell Motility” (priority 2005, published 2009)",
  "tested_on": "Human glioblastoma SNB19 cells",
  "assay": "LIVE/DEAD reagent staining to assess compound toxicity at end of migration assay",
  "assay_type": "cell-based",
  "method": "The 96 well slides were first coated with 0.1 μg/ml laminin, a motility stimulating substrate, in PBS for 1 hour at 37° C., rinsed three times in PBS, and then treated with 0.1% BSA in PBS for 1 hour at room temperature. Human glioblastoma SNB19 cells were plated at 3,000 cells per sedimentation channel and incubated overnight to allow cell sedimentation and attachment to the substrate. After removal of the manifold, the cells were treated with the compounds either at 0, 0.1 μM, 1 μM or […]. The experiment was done in duplicate with appropriate controls on each slide. After adding the compounds, the diameter of each cell population was initially measured using an inverted microscope and image analysis software (Scion Image Corp, Frederick, Md.). Cells were incubated an additional 72 hours in the presence (or not) of the pharmacological compounds. The diameter of each cell population was again assessed at 24 hours, 48 hours and 72 hours to calculate the overall migration rate. Migration results were reported as the specific radial movement (μm/day) of the cell population. […] At the end of the assay, cells were rinsed with PBS, then treated with LIVE/DEAD reagent staining (Molecular Probes, Eugene, Oreg.) to assess compound toxicity.\nFIGS. 1-38 show data for the activity of compounds in the migration assay. […]",
  "data": [
    {"compound": "c1ccc(C2(NCCCCNCC3CC3CNCCCCNC3(c4ccccc4)CC3)CC2)cc1", "note": "(centres unmarked) [SL-11255, 1,2-bis((1-phenylcyclopropylaminobutyl)aminomethyl)cyclopropane]", "values": [
      {"measurement": "cytotoxic effects (Live/Dead assay)", "setting": "10 μM, at time of staining (end of 72 hour assay)", "value": "severe cytotoxic effects"},
      {"measurement": "toxicity (Live/Dead assay)", "setting": "lower concentrations (below 10 μM)", "value": "not toxic"}
    ]}
  ]
}
